In US12180187B2, “1-phenyl-5-azinylpyrazolyl-3-oxyalkyl acids and their use for controlling unwanted plant growth” (BAYER AKTIENGESELLSCHAFT, priority 2019, dated 2024):

Legend:
ECHGC = assay: Pre-emergence action at 320 g/ha against ECHGC; format: in vivo, Echinochloa crus-galli; settings: visual scoring after about 3 weeks vs untreated controls
From the text: (§1) b) Seeds of monocotyledonous and dicotyledonous weed plants and crop plants are placed in plastic or organic planting pots and covered with soil. The compounds of the invention, formulated in the form of wettable powders (WP) or as emulsion concentrates (EC), are then applied onto the surface of the covering soil as aqueous suspension or emulsion with addition of 0.5% additive at a water application rate of 600 l/ha (converted). After the treatment, the pots are placed in a greenhouse and kept under good growth conditions for the trial plants. After about 3 weeks, the effect of the preparations is scored visually in comparison with untreated controls as percentages. For example, 100% activity=the plants have died, 0% activity=like control plants. Tables 13 to 26 below show the effects of selected compounds of the general formula (I) on various harmful plants and at an application rate corresponding to 320 g/ha, which were obtained by the experimental procedure mentioned above.

POLCO = assay: Pre-emergence action at 320 g/ha against POLCO; format: in vivo, Fallopia convolvulus (Polygonum convolvulus); settings: visual scoring after about 3 weeks vs untreated controls
Outline: (§2)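 Compounds were sprayed onto soil over sown seeds as emulsions or suspensions with 0.5% additive at a water rate of 600 l/ha. After about 3 weeks in the greenhouse, effect was rated visually as percent (100% = died).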

LOLRI [1] = assay: Pre-emergence action at 320 g/ha against LOLRI; format: in vivo, Lolium rigidum; settings: visual scoring after about 3 weeks vs untreated controls
From the text: as §1

ALOMY [2] = assay: Pre-emergence action at 320 g/ha against ALOMY; format: in vivo, Alopecurus myosuroides; settings: scored visually after about 3 weeks vs untreated controls (100% = plants have died)
Outline: as §2

AMARE [3] = assay: Pre-emergence action at 320 g/ha against AMARE; format: in vivo, Amaranthus retroflexus; settings: visual scoring after about 3 weeks vs untreated controls
Outline: as §2

SETVI [4] = assay: Pre-emergence action at 320 g/ha against SETVI; format: in vivo, Setaria viridis; settings: visual scoring after about 3 weeks vs untreated controls
From the text: as §1

MATIN [5] = assay: Pre-emergence action at 320 g/ha against MATIN; format: in vivo, Tripleurospermum inodorum (Matricaria inodora); settings: visual scoring after about 3 weeks vs untreated controls
From the text: as §1

VERPE [6] = assay: Pre-emergence action at 320 g/ha against VERPE; format: in vivo, Veronica persica; settings: visual scoring after about 3 weeks vs untreated controls
From the text: as §1

AVEFA = assay: Pre-emergence action at 320 g/ha against AVEFA; format: in vivo; settings: visual scoring after about 3 weeks vs untreated controls
From the text: as §1

VIOTR = assay: Pre-emergence action at 320 g/ha against VIOTR; format: in vivo, Viola tricolor; settings: dosage 320 g/ha
Outline: as §2

DIGSA [7] = assay: Pre-emergence action at 320 g/ha against DIGSA; format: in vivo, Digitaria sanguinalis; settings: visual scoring after about 3 weeks vs untreated controls
From the text: as §1

ECHCG [8] = assay: Post-emergence action against ECHCG, 1.28 kg/ha; format: in vivo, Echinochloa crus-galli; settings: dosage 1280 g/ha, visual rating about 3 weeks after treatment vs untreated controls
Outline: (§3)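 Visual rating against untreated plants about 3 weeks after spraying gives % activity, where 0% means like controls and 100% means plants died. Plants were treated post-emergence at the one-leaf stage with compound formulated as wettable powder or emulsion concentrate, applied at 600 L water/ha plus 0.5% additive.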

MATIN [9] = assay: Pre-emergence action against MATIN, 1280 g/ha; format: in vivo, Tripleurospermum inodorum (Matricaria inodora); settings: scored visually after about 3 weeks vs untreated controls (100% = plants have died)
Outline: (§4)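 Compound applied as WP or EC in aqueous spray (0.5% additive, 600 L/ha) to the surface of sandy loam covering freshly sown seeds. After about 3 weeks under good greenhouse conditions, damage is given as visual percentage, 100% meaning plant death.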

ALOMY [10] = assay: Pre-emergence action against ALOMY, 1280 g/ha; format: in vivo, Alopecurus myosuroides; settings: visual scoring after about 3 weeks vs untreated controls, 100% = plants have died, 0% = like control plants
Outline: as §4

VERPE [11] = assay: Pre-emergence action against VERPE, 1280 g/ha; format: in vivo, Veronica persica; settings: scored visually after about 3 weeks vs untreated controls (100% = plants have died)
Outline: as §4

SETVI [12] = assay: Post-emergence action against SETVI, 1.28 kg/ha; format: in vivo, Setaria viridis; settings: dosage 1280 g/ha, visual rating about 3 weeks after treatment vs untreated controls
Procedure: (§5) • a) Seeds of mono- and dicotyledonous weed plants are placed in plastic pots in sandy loam soil (twin sowing with one species each of mono- or dicotyledonous weed plants per pot), covered with soil and cultivated in a greenhouse under controlled growth conditions. 2 to 3 weeks after sowing, the test plants are treated at the one-leaf stage. The compounds of the invention, formulated in the form of wettable powders (WP) or as emulsion concentrates (EC), are applied to the green parts of the plants as aqueous suspension or emulsion with addition of 0.5% additive at a water application rate equivalent to 600 litres per hectare. After the test plants have been kept in the greenhouse under optimum growth conditions for about 3 weeks, the activity of the preparations is rated visually in comparison to untreated controls. For example, 100% activity=the plants have died, 0% activity=like control plants. As shown by the results, compounds of the general formula (I) of the invention, in post-emergence treatment, have very good herbicidal efficacy (90% to 100% herbicidal action) against harmful plants such as Abutilon theophrasti, Digitaria sanguinalis, Echinochloa crus-galli, Matricaria inodora, Poa annua, at an application rate of 1.28 kg of active substance per hectare.

DIGSA [13] = assay: Post-emergence action against DIGSA, 1.28 kg/ha; format: in vivo, Digitaria sanguinalis; settings: dosage 1280 g/ha, visual rating about 3 weeks after treatment vs untreated controls
Outline: as §3

LOLRI [14] = assay: Pre-emergence action against LOLRI, 1280 g/ha; format: in vivo, Lolium rigidum; settings: visual scoring after about 3 weeks vs untreated controls, 100% = plants have died, 0% = like control plants
Outline: as §4

STEME [15] = assay: Post-emergence action against STEME, 1.28 kg/ha; format: in vivo, Stellaria media; settings: dosage 1280 g/ha, visual rating about 3 weeks after treatment vs untreated controls (100% = plants died)
Outline: as §3

STEME [16] = assay: Pre-emergence action against STEME, 1280 g/ha; format: in vivo, Stellaria media; settings: scored visually after about 3 weeks vs untreated controls (100% = plants have died)
Outline: as §4

POAAN [17] = assay: Post-emergence action against POAAN, 1.28 kg/ha; format: in vivo, Poa annua; settings: dosage 1280 g/ha, visual rating about 3 weeks after treatment vs untreated controls
Outline: as §3

DIGSA [18] = assay: Pre-emergence action against DIGSA, 1280 g/ha; format: in vivo, Digitaria sanguinalis; settings: visual scoring after about 3 weeks vs untreated controls, 100% = plants have died, 0% = like control plants
Outline: as §4

VERPE [19] = assay: Post-emergence action against VERPE, 1.28 kg/ha; format: in vivo, Veronica persica; settings: dosage 1280 g/ha, visual rating about 3 weeks after treatment vs untreated controls (100% = plants died)
Outline: as §3

POAAN [20] = assay: Pre-emergence action against POAAN, 1280 g/ha; format: in vivo, Poa annua; settings: visual scoring after about 3 weeks vs untreated controls, 100% = plants have died, 0% = like control plants
Outline: as §4

ABUTH = assay: Post-emergence action against ABUTH, 1.28 kg/ha; format: in vivo, Abutilon theophrasti; settings: dosage 1280 g/ha, visual rating about 3 weeks after treatment vs untreated controls (100% = plants died)
Outline: as §3

LOLRI [21] = assay: Post-emergence action against LOLRI, 1.28 kg/ha; format: in vivo, Lolium rigidum; settings: dosage 1280 g/ha, visual rating about 3 weeks after treatment vs untreated controls
Procedure: as §5

AMARE [22] = assay: Post-emergence action against AMARE, 1.28 kg/ha; format: in vivo, Amaranthus retroflexus; settings: dosage 1280 g/ha, visual rating about 3 weeks after treatment vs untreated controls (100% = plants died)
Outline: as §3

AMARE [23] = assay: Pre-emergence action against AMARE, 1280 g/ha; format: in vivo, Amaranthus retroflexus; settings: scored visually after about 3 weeks vs untreated controls (100% = plants have died)
Outline: as §4

MATIN [24] = assay: Post-emergence action against MATIN, 1.28 kg/ha; format: in vivo, Tripleurospermum inodorum (Matricaria inodora); settings: dosage 1280 g/ha, visual rating about 3 weeks after treatment vs untreated controls (100% = plants died)
Outline: as §3

ECHCG [25] = assay: Pre-emergence action against ECHCG, 1280 g/ha; format: in vivo, Echinochloa crus-galli; settings: visual scoring after about 3 weeks vs untreated controls, 100% = plants have died, 0% = like control plants
Outline: as §4

ALOMY [26] = assay: Post-emergence action against ALOMY, 1.28 kg/ha; format: in vivo, Alopecurus myosuroides; settings: dosage 1280 g/ha, visual rating about 3 weeks after treatment vs untreated controls
Outline: as §3

SETVI [27] = assay: Pre-emergence action against SETVI, 1280 g/ha; format: in vivo, Setaria viridis; settings: visual scoring after about 3 weeks vs untreated controls, 100% = plants have died, 0% = like control plants
Outline: as §4

Row | SMILES | Pre-emergence action against ECHGC in % (ECHGC) | Pre-emergence action against POLCO in % (POLCO) | Pre-emergence action against LOLRI in % (LOLRI [1]) | Pre-emergence action at 320 g/ha against ALOMY in % (ALOMY [2]) | Pre-emergence action against AMARE in % (AMARE [3]) | Pre-emergence action against SETVI in % (SETVI [4]) | Pre-emergence action against MATIN in % (MATIN [5]) | Pre-emergence action against VERPE in % (VERPE [6]) | Pre-emergence action against AVEFA in % (AVEFA) | Pre-emergence action against VIOTR in % (VIOTR) | Pre-emergence action against DIGSA in % (DIGSA [7]) | Post-emergence action against ECHCG (ECHCG [8]) | Pre-emergence action against MATIN (MATIN [9]) | Pre-emergence action against ALOMY (ALOMY [10]) | Pre-emergence action against VERPE (VERPE [11]) | Post-emergence action against SETVI (SETVI [12]) | Post-emergence action against DIGSA (DIGSA [13]) | Pre-emergence action against LOLRI (LOLRI [14]) | Pre-emergence action against STEME (STEME [16]) | Post-emergence action against POAAN (POAAN [17]) | also measured
1 | COC(=O)C(C)Oc1nn(-c2ccccc2F)c(-c2ccc(F)nc2)c1Br (stereo not drawn) [VII-060] | 90% | 90% | 100% | 100% | 100% | 90% | 90% | 100% | 90% | 100% | 100% | – | – | – | – | – | – | – | – | – | –
2 | COC(=O)COc1nn(-c2ccccc2F)c(-c2ccc(F)nc2)c1I [VII-113] | 90% | 90% | 100% | 90% | 100% | 90% | 90% | 90% | 90% | 100% | – | – | – | – | – | – | – | – | – | – | –
3 | CCOC(=O)COc1nn(-c2ccccc2F)c(-c2ccc(F)nc2)c1C1CC1 [VII-119] | – | – | – | – | – | – | – | – | – | – | – | 100% | 100% | 100% | 100% | 100% | 100% | 100% | 100% | 100% | Post-emergence action against STEME (STEME [15]): 100%; Pre-emergence action against DIGSA (DIGSA [18]): 100%; Post-emergence action against VERPE (VERPE [19]): 100%; Pre-emergence action against POAAN (POAAN [20]): 100%; Post-emergence action against ABUTH (ABUTH): 90%; Post-emergence action against LOLRI (LOLRI [21]): 100%; Post-emergence action against AMARE (AMARE [22]): 100%; Pre-emergence action against AMARE (AMARE [23]): 100%; Post-emergence action against MATIN (MATIN [24]): 100%; Pre-emergence action against ECHCG (ECHCG [25]): 100%; Post-emergence action against ALOMY (ALOMY [26]): 100%; Pre-emergence action against SETVI (SETVI [27]): 100%
4 | O=C(COc1nn(-c2ccccc2F)c(-c2ccnc(F)c2)c1Br)OCC1CCOC1 (stereo not drawn) [VIII-011] | 90% | – | 90% | 100% | 100% | 90% | 90% | – | – | 100% | 100% | 100% | 100% | 90% | 100% | 100% | 100% | 100% | 100% | 100% | Pre-emergence action against DIGSA (DIGSA [18]): 90%; Post-emergence action against VERPE (VERPE [19]): 100%; Pre-emergence action against POAAN (POAAN [20]): 100%; Post-emergence action against ABUTH (ABUTH): 90%; Post-emergence action against AMARE (AMARE [22]): 100%; Pre-emergence action against AMARE (AMARE [23]): 100%; Post-emergence action against MATIN (MATIN [24]): 90%; Pre-emergence action against ECHCG (ECHCG [25]): 100%; Post-emergence action against ALOMY (ALOMY [26]): 100%; Pre-emergence action against SETVI (SETVI [27]): 100%
